According to patent US7858618B2, “Compounds” (Boehringer Ingelheim International GmbH, priority 2006, dated 2010):

Target: T1, hBK1 receptor (Homo sapiens, UniProt P46663)
T1 construct: expressed in transfected cells; host or cells: CHO cells
T1 sequence (P46663 1-353): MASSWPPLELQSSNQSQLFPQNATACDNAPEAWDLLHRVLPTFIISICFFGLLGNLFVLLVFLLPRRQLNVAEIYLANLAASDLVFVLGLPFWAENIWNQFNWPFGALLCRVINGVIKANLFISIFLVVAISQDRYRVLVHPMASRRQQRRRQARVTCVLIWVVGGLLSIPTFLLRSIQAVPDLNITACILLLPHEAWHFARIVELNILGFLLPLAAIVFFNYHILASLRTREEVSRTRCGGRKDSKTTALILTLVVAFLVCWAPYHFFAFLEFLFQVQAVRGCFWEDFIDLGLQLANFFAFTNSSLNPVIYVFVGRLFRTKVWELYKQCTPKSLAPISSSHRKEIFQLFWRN
Assay: hBK1 receptor binding (displacement of [3H]-kallidin (DesArg10, Leu9) from membranes of CHO cells expressing the hBK1 receptor)
Conditions: CHO cell membranes expressing hBK1 receptor; 0.5 to 1.0 nM [3H]-kallidin (DesArg10, Leu9); 60 minutes at room temperature
Experimental: Description of the Method of hBK1 Receptor Binding
CHO cells expressing the hBK1 receptor are cultivated in Dulbecco's modified medium. The medium from confluent cultures is removed and the cells are washed with PBS buffer, scraped off and isolated by centrifugation. The cells are then homogenized in suspension and the homogenate is centrifuged and resuspended. The protein content is determined and the membrane preparation obtained in this manner is then frozen at −80° C.
After thawing, 200 μl of the homogenate (50 to 100 μg of proteins/assay) are incubated at room temperature with 0.5 to 1.0 nM of kallidin (DesArg10, Leu9), [3,4-prolyl-3,43H(N)] and increasing concentrations of the test substance in a total volume of 250 μl for 60 minutes. The incubation is terminated by rapid filtration through GF/B glass fibre filters which had been pretreated with polyethyleneimine (0.3%). The protein-bound radioactivity is measured in a TopCount NXT. Non-specific binding is defined as radioactivity bound in the presence of 1.0 μM of kallidin (DesArg10, Leu9), [3,4-prolyl-3,43H(N)]. The concentration/binding curve is analysed using a computer-assisted nonlinear curve fitting. The Ki which corresponds to the test substance is determined using the data obtained in this manner. […]

| Compound | Ki |
| --- | --- |
| COc1cc(C)c(S(=O)(=O)N(C)CCOCC(=O)N(C)[C@@H]2CCC[C@H](N3CCN(C)CC3)C2)c(C)c1 [(421)] | 8.7 nM |
| COc1cc(C)c(S(=O)(=O)N(C)CCOCC(=O)N(C)C2CCc3cc(CN4CCCC4)ccc32)c(C)c1 (stereo not shown) [(424)] | 1.4 nM |
| COc1cc(C)c(S(=O)(=O)N(C)CCOCC(=O)N(C)[C@H]2CC[C@@H](CN3CC[C@@H](N(C)C)C3)CC2)c(C)c1 [(441)] | 4.6 nM |
| COc1cc(C)c(S(=O)(=O)N(C)CCOCC(=O)N(C)[C@H]2CC[C@@H](CN3CCC(N(C)C)C3)CC2)c(C)c1 (stereo partly shown) [(444)] | 6.9 nM |
| COc1cc(C)c(S(=O)(=O)N(C)CCOCC(=O)N(C)Cc2ccc(N3CCC(N4CCCC4)C3)cc2Cl)c(C)c1 (stereo not shown) [(445)] | 5.6 nM |
| COc1cc(C)c(S(=O)(=O)N(C)CCOCC(=O)N(C)[C@@H]2CCN([C@H]3CC[C@@H](N4CCCC4)CC3)C2)c(C)c1 [(448)] | 0.82 nM |
| COc1cc(C)c(S(=O)(=O)N(C)CCOCC(=O)N(C)C2CCCN(C3CCN(C)CC3)CC2)c(C)c1 (stereo not shown) [(451)] | 9 nM |
| COc1cc(C)c(S(=O)(=O)N(C)CCOCC(=O)N(C)[C@@H]2CCN(C3CCN(CC4CC4)CC3)C2)c(C)c1 [(458)] | 4.3 nM |
| COc1cc(C)c(S(=O)(=O)N(C)CCOCC(=O)N(C)[C@H]2CC[C@@H](CCN(C)CC3CC3)CC2)c(C)c1 [(463)] | 2 nM |
| COc1cc(C)c(S(=O)(=O)N(C)CCOCC(=O)N(C)[C@H]2CC[C@@H](CCN3CCN(C)CC3)CC2)c(C)c1 [(464)] | 1.5 nM |
| COc1cc(C)c(S(=O)(=O)N(C)CCOCC(=O)N(C)[C@H]2CCN(C3CCN(CC4CC4)CC3)C2)c(C)c1 [(465)] | 3.8 nM |
| COc1cc(C)c(S(=O)(=O)N(C)CCOCC(=O)N(C)C2CCC(N3CCC(N4CCCC4)CC3)CC2)c(C)c1 (stereo not shown) [(468)] | 1 nM |
| COc1cc(Cl)cc(Cl)c1S(=O)(=O)N(C)CCOCC(=O)N(C)[C@@H]1CCN(C2CCN(C)CC2)C1 [(469)] | 8 nM |
| COc1cc(C)c(S(=O)(=O)N(C)CCOCC(=O)N(C)[C@H]2CC[C@@H](CN3CC[C@H](N4CCCC4)C3)CC2)c(C)c1 [(471)] | 4.1 nM |
| COc1cc(C)c(S(=O)(=O)N(C)CCOCC(=O)N(C)[C@H]2CC[C@@H](CN3CC[C@@H](N4CCCC4)C3)CC2)c(C)c1 [(472)] | 0.68 nM |
| COc1cc(C)c(S(=O)(=O)N(C)CCOCC(=O)N(C)C2CCC(C3CCN(C)CC3)CC2)c(C)c1 (stereo not shown) [(477)] | 5.8 nM |
| COc1cc(C)c(S(=O)(=O)N(C)CCOCC(=O)N(C)[C@@H]2CCN(C3CCN(C4CCCC4)CC3)C2)c(C)c1 [(478)] | 1 nM |
| COc1cc(C)c(S(=O)(=O)N(C)CC(=O)NCC(=O)N(C)Cc2ccc(NCCN(C)C)cc2)c(C)c1 [(492)] | 3.2 nM |
| COc1cc(C)c(S(=O)(=O)N(C)CCOCC(=O)N(C)[C@@H]2CCN(C3CCN(C4CCC4)CC3)C2)c(C)c1 [(577)] | 0.34 nM |
| COc1cc(C)c(S(=O)(=O)N(C)CCOCC(=O)N(C)C2CCC(N3CCC(C4CCN(C)CC4)CC3)CC2)c(C)c1 (stereo not shown) [(588)] | 1.5 nM |
| COc1cc(C)c(S(=O)(=O)N(C)CCOCC(=O)N(C)[C@H]2CC[C@@H](N3CCN(C)CC3)CC2)c(C)c1 [(589)] | 5.1 nM |
| COc1cc(C)c(S(=O)(=O)N(C)CCOCC(=O)N(C)[C@H]2CC[C@@H](CCN3CCOCC3)CC2)c(C)c1 [(619)] | 1.2 nM |
| CCN(CC)CCC(=O)N1CC[C@@H](N(C)C(=O)COCCN(C)S(=O)(=O)c2c(C)cc(OC)cc2C)C1 [(624)] | 8 nM |

Further lines, results first:

| Ki | Compound |
| --- | --- |
| 9.1 nM | COc1cc(C)c(S(=O)(=O)N(C)CCOCC(=O)N(C)CC2CCC(N3CCN(C)CC3)CC2)c(C)c1 (stereo not shown) [(420)] |
| 3.4 nM | COc1cc(C)c(S(=O)(=O)N(C)CCOCC(=O)N(C)C[C@]2(C)CC[C@H](CN3CCCC3)C2(C)C)c(C)c1 [(423)] |
| 8.3 nM | COc1cc(C)c(S(=O)(=O)N(C)CCOCC(=O)N(C)C[C@@H]2CC[C@H](CN3CCCC3)C2)c(C)c1 [(425)] |
| 6.3 nM | COc1cc(C)c(S(=O)(=O)N(C)CCOCC(=O)N(C)C[C@H]2CC[C@@H](N(C)CCN(C)C)CC2)c(C)c1 [(428)] |
| 1.5 nM | COc1cc(C)c(S(=O)(=O)N(C)CCOCC(=O)N(C)[C@H]2CC[C@@H](CCN3CCCC3)CC2)c(C)c1 [(435)] |
| 7.5 nM | COc1cc(C)c(S(=O)(=O)N(C)CCOCC(=O)N(C)[C@H]2CC[C@H](CCN3CCCC3)CC2)c(C)c1 [(439)] |
| 1.8 nM | COc1cc(C)c(S(=O)(=O)N(C)CCOCC(=O)N(C)[C@H]2CC[C@@H](CN3CCC[C@H](N(C)C)C3)CC2)c(C)c1 [(473)] |
| 1.4 nM | COc1cc(C)c(S(=O)(=O)N(C)CCOCC(=O)N(C)C[C@H]2CC[C@@](C)(CN3CCCC3)C2(C)C)c(C)c1 [(474)] |
| 2.4 nM | COc1cc(C)c(S(=O)(=O)N(C)CCOCC(=O)N(C)CC2CCN(C(=O)CCN3CCCC3)CC2)c(C)c1 [(475)] |
| 2.35 nM | COc1cc(C)c(S(=O)(=O)N(C)CCOCC(=O)N(C)[C@H]2CC[C@@H](CN3CCC[C@@H](N(C)C)C3)CC2)c(C)c1 [(476)] |
| 0.85 nM | COc1cc(C)c(S(=O)(=O)N(C)CCOCC(=O)N(C)C[C@@H]2CCN(CCCN3CCCC3)C2)c(C)c1 [(576)] |
| 6.2 nM | COc1cc(C)c(S(=O)(=O)N(C)CCOCC(=O)N(C)[C@@H]2CCN(C(=O)CCN3CCCC3)C2)c(C)c1 [(580)] |
| 9.3 nM | COc1cc(C)c(S(=O)(=O)N(C)CCOCC(=O)N(C)C[C@]2(C)CC[C@H](CN3CCC3)C2(C)C)c(C)c1 [(582)] |
| 9 nM | COc1cc(C)c(S(=O)(=O)N(C)CCOCC(=O)N(C)C[C@H]2CC[C@@H](N3CCN(C)CC3)CC2)c(C)c1 [(584)] |
| 5.1 nM | COc1cc(C)c(S(=O)(=O)N(C)CCOCC(=O)N(C)CC2CCC(N3CCC(N(C)C)CC3)CC2)c(C)c1 (stereo not shown) [(586)] |
| 9.5 nM | COc1cc(C)c(S(=O)(=O)N(C)CCOCC(=O)N(C)CC2CCC(N3CCCC(N(C)C)C3)CC2)c(C)c1 (stereo not shown) [(587)] |
| 1.9 nM | COc1cc(C)c(S(=O)(=O)N(C)CCOCC(=O)N(C)C[C@H]2CC[C@H](NCCN3CCCC3)CC2)c(C)c1 [(591)] |
| 2.8 nM | COc1cc(C)c(S(=O)(=O)N(C)CCOCC(=O)N(C)[C@H]2CC[C@@H](CCN3CCC3)CC2)c(C)c1 [(592)] |
| 9.7 nM | COc1cc(C)c(S(=O)(=O)N(C)CCOCC(=O)N(C)[C@H]2CC[C@@H](OCCN(C)C)CC2)c(C)c1 [(613)] |
| 2 nM | COc1cc(C)c(S(=O)(=O)N(C)CCOCC(=O)N(C)[C@H]2CC[C@@H](OCCN3CCCC3)CC2)c(C)c1 [(614)] |
| 3.7 nM | COc1cc(C)c(S(=O)(=O)N(C)CCOCC(=O)N(C)C(C)[C@H]2CC[C@H](CN3CCCC3)CC2)c(C)c1 (stereo partly shown) [(616)] |
| 5.9 nM | COc1cc(C)c(S(=O)(=O)N(C)CCOCC(=O)N(C)[C@H]2CC[C@@H](CCN(C)C)CC2)c(C)c1 [(620)] |
| 5.8 nM | COc1cc(C)c(S(=O)(=O)N(C)CCOCC(=O)N(C)C[C@H]2CC[C@@](C)(CN3CCC3)C2(C)C)c(C)c1 [(621)] |
| 3.4 nM | COc1cc(C)c(S(=O)(=O)N(C)CCOCC(=O)N(C)[C@@H]2CCN(C(=O)CCN3CCCCC3)C2)c(C)c1 [(623)] |
| 5.5 nM | COc1cc(C)c(S(=O)(=O)N(C)CCOCC(=O)N(C)C2CCN(C(=O)CCN3CCCC3)CC2)c(C)c1 [(630)] |

Test system: not given
Assay: not given
Conditions: not given

| melting point | Compound |
| --- | --- |
| 173 °C | CCN(CC)CC1CCN(c2ccc(NC(=O)CCN(C)S(=O)(=O)c3c(C)cc(OC)cc3C)nn2)CC1 [Example 87] |
